In patent US4870183A, “Novel amino acid derivatives” (priority 1986, dated 1989):
Read-outs that look alike come from different tables or passages of the source.

Experiments:
human renin = biological target: T1, human renin (Homo sapiens, UniProt P00797); assay: Inhibitory effect on human renin-sheep renin substrate reaction system in vitro; type: biochemical
T1 sequence (P00797 67-406): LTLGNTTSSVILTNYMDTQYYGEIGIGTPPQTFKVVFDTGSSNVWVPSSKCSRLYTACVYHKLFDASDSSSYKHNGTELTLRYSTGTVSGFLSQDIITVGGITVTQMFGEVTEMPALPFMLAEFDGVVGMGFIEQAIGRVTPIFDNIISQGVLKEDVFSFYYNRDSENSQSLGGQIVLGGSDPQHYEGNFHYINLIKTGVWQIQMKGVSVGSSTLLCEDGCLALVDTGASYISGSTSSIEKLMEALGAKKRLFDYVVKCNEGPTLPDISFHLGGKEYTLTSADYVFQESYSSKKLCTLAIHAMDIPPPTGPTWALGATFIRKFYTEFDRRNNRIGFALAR
Method: Inhibitory effect on human renin-sheep renin substrate reaction system in vitro
The mixture was incubated for 15 minutes on a water bath at 37° C., and the reaction mixture was allowed to stand for 5 minutes on a water bath at 100° C. to stop the reaction. After cooling, 200 μl of the solution was taken up and the amount of angiotensin I produced by the addition of renin was determined by radioimmunoassay using renin riabead kit (DAINABOT).
The inhibitory effect was calculated by the following equation.
As a control, the same procedure as above was carried out by using 50 μl of dimethyl sulfoxide alone in place of the 50 μl of dimethyl sulfoxide solution containing an amino acid compound of the present invention. [formula]

[1] = biological target: T2, renin in human high renin plasma (Homo sapiens, UniProt P00797); assay: Renin inhibitory effect in a human high renin plasma; type: biochemical
T2 construct: from tissue; host or cells: human high renin plasma
T2 sequence (P00797 67-406): T1 sequence (P00797 67-406)
Method: Renin Inhibitory Effect in a Human High Renin Plasma
Two hundred μl of the mixture was placed on an ice bath, at 4° C., and remaining mixture (800 μl) was incubated for 60 minutes at 37° C. on a water bath. Two hundred μl of the incubated remaining mixture was chilled immediately on an ice bath, and the amount (A) of angiotensin I produced was determined by radioimmunoassay using renin riabead kit (DAINABOT).
The amount (B) of angiotensin I in the mixture placed on an ice bath at 4° C. was also determined by radioimmunoassay.
As a control, the same procedure as above was carried out by using 100 μl of dimethyl sulfoxide alone in place of 100 μl of dimethyl sulfoxide solution containing an amino acid compound of the present invention.
The net amount was estimated as the difference between A and B.
The inhibitory effect was calculated by the following equation. [formula]

[2] = human renin-sheep renin substrate system, pH 7.4, 37° C., 15 minutes, read-out: IC50 molar concentration
[3] = human high renin plasma, pH 7.0, 37° C., 60 minutes, read-out: IC50 molar concentration

| IC50 (human renin) [nM] | IC50 [1] [nM] | Compound | IC50 (human renin; [2]) [nM] | IC50 [1, 3] [nM] |
| --- | --- | --- | --- | --- |
| 190 | 280 | CC(C)OC(=O)C(O)[C@H](CC1CCCCC1)NC(=O)[C@H](Cc1c[nH]cn1)NC(=O)C(Cc1ccccc1C#N)Cc1ccccc1C#N (mixture of isomers) [Compound T, (2RS, 3S)-3-{N-[Bis(2-cyanobenzyl)acetyl]-L-histidyl}amino-4-cyclohexyl-2-hydroxybutyric acid isopropyl ester] | – | – |
| – | – | CC(C)OC(=O)C(O)[C@H](CC1CCCCC1)NC(=O)[C@H](Cc1c[nH]cn1)NC(=O)C(Cc1ccc(F)cc1)Cc1ccc(F)cc1 (mixture of isomers) [Compound O, (2RS, 3S)-3-{N-[Bis(4-fouorobenzyl)acetyl]-L-histidyl}amino-4-cyclohexyl-2-hydroxybutyric acid isopropyl ester] | 68 | 1200 |
| 910 | 2600 | CC(C)OC(=O)C(O)[C@H](CC1CCCCC1)NC(=O)[C@H](Cc1c[nH]cn1)NC(=O)C(Cc1ccc2c(c1)OCO2)Cc1ccc2c(c1)OCO2 (mixture of isomers) [Compound V, (2RS, 3S)-3-{N-[Bis(3,4-methylenedioxybenzyl)acetyl]-L-histidyl}amino-4-cyclohexyl-2-hydroxybutyric acid isopropyl ester] | – | – |
| 18 | 250 | CC(C)OC(=O)C(O)[C@H](CC1CCCCC1)NC(=O)[C@H](Cc1c[nH]cn1)NC(=O)C(Cc1cccc(F)c1)Cc1cccc(F)c1 (mixture of isomers) [Compound D, (2RS, 3S)-3-{N-[Bis(3-fluorobenzyl)acetyl]-L-histidyl}amino-4-cyclohexyl-2-hydroxybutyric acid isopropyl ester] | – | – |
| – | – | CC(C)OC(=O)C(O)[C@H](CC1CCCCC1)NC(=O)[C@H](Cc1c[nH]cn1)NC(=O)C(Cc1ccccc1O)Cc1ccccc1O (stereo partly drawn) [Compound C, (2RS 3S)-3-{N-[Bis(2-hydroxybenzyl)acetyl]-L-histidyl}amino-4-cyclohexyl-2-hydroxybutyric acid isopropyl ester] | 180 | 400 |
| 170 | 360 | COc1ccccc1CC(Cc1ccccc1OC)C(=O)N[C@@H](Cc1c[nH]cn1)C(=O)N[C@@H](CC1CCCCC1)C(O)C(=O)OC(C)C (mixture of isomers) [Compound R, (2RS, 3S)-3-{N-[Bis(2-methoxybenzyl)acetyl]-L-histidyl}amino-4-cyclohexyl-2-hydroxybutyric acid isopropyl ester] | – | – |
| 49 | 430 | CC(C)OC(=O)C(O)[C@H](CC1CCCCC1)NC(=O)[C@H](Cc1c[nH]cn1)NC(=O)C(Cc1cccc2ccccc12)Cc1cccc2ccccc12 (mixture of isomers) [Compound L, (2RS, 3S)-3-{N-[Bis(1-naphthylmethyl)acetyl]-L-histidyl}amino-4-cyclohexyl-2-hydroxybutyric acid isopropyl ester] | – | – |
| 19 | 130 | O=C(N[C@@H](Cc1cnc[nH]1)C(=O)N[C@@H](CC1CCCCC1)C(O)C(=O)OC(CF)CF)C(Cc1ccccc1)Cc1ccccc1 (some centres unmarked) [Compound P] | – | – |
| 52 | 260 | CC(C)OC(=O)C(O)[C@H](CC1CCCCC1)NC(=O)[C@H](Cc1c[nH]cn1)NC(=O)C(Cc1ccccc1)Cc1ccccc1 (mixture of isomers) [Compound E, (2RS, 3S)-3-[N-(dibenzylacetyl)-L-histidyl}amino-4-cyclohexyl-2-hydroxybutyric acid isopropyl ester] | – | – |
| 470 | 5900 | CC(C)OC(=O)C(O)[C@H](CC1CCCCC1)NC(=O)[C@H](Cc1c[nH]cn1)NC(=O)C(Cc1ccc(Cl)cc1)Cc1ccc(Cl)cc1 (mixture of isomers) [Compound J, (2RS, 3S)-3-{N-[Bis(4-chlorobenzyl)acetyl]-L-histidyl}amino-4-cyclohexyl-2-hydroxybutyric acid isopropyl ester] | – | – |
| – | – | (2RS, 3S)-3-{N-[Bis(2-chlorobenzyl)acetyl]-L-histidyl}amino-4-cyclohexyl-2-hydroxybutyric acid butyric acid isopropyl ester [Compound U] | 63 | 430 |
| 77 | 860 | Cc1cccc(CC(Cc2cccc(C)c2C)C(=O)N[C@@H](Cc2c[nH]cn2)C(=O)N[C@@H](CC2CCCCC2)C(O)C(=O)OC(C)C)c1C (mixture of isomers) [Compound M, (2RS, 3S)-3-{N-[Bis(2,3-dimethylbenzyl)acetyl]-L-histidyl}amino-4-cyclohexyl-2-hydroxybutyric acid isopropyl ester] | – | – |
| 18 | 430 | CC(C)OC(=O)C(O)[C@H](CC1CCCCC1)NC(=O)[C@H](Cc1c[nH]cn1)NC(=O)C(Cc1ccccc1Br)Cc1ccccc1Br (mixture of isomers) [Compound I, (2RS, 3S)-3-{N-[Bis(2-bromobenzyl)acetyl]-L-histidyl}amino-4-cyclohexyl-2-hydroxybutyric acid isopropyl ester] | – | – |
| 60 | 540 | Cc1cccc(CC(Cc2cccc(C)c2)C(=O)N[C@@H](Cc2c[nH]cn2)C(=O)N[C@@H](CC2CCCCC2)C(O)C(=O)OC(C)C)c1 (mixture of isomers) [Compound Q, (2RS, 3S)-3-{N-[Bis(3-methylbenzyl)acetyl]-L-histidyl}amino-4-cyclohexyl-2-hydroxybutyric acid isopropyl ester] | – | – |
| 1800 | 3400 | CC(C)CNC(=O)C(O)[C@H](CC1CCCCC1)NC(=O)[C@H](Cc1c[nH]cn1)NC(=O)C(Cc1cccc2c1OCO2)Cc1cccc2c1OCO2 (mixture of isomers) [Compound Y, (2RS, 3S)-3-{N-[Bis(2,3-methylenedioxybenzyl)acetyl]-L-histidyl}amino-4-cyclohexyl-2-hydroxybutyric acid isobutyl amide] | – | – |
| – | – | (2RS, 3)-3-{N-[Bis(2-fluorobenzyl)acetyl]-L-histidyl}amino-4-cyclohexyl ester [Compound S] | 62 | 430 |
| 120 | 1200 | CC(C)OC(=O)C(O)[C@H](CC1CCCCC1)NC(=O)[C@H](Cc1c[nH]cn1)NC(=O)C(Cc1ccccc1C(F)(F)F)Cc1ccccc1C(F)(F)F (mixture of isomers) [Compound B, (2RS, 3S)-3-{N-[Bis(2-trifluoromethylbenzyl)acetyl]-L-histidyl}amino-4-cyclohexyl-2-hydroxybutyric acid isopropyl ester] | – | – |
| 29 | 230 | O=C(N[C@@H](Cc1c[nH]cn1)C(=O)N[C@@H](CC1CCCCC1)C(O)C(=O)OC1CCCC1)C(Cc1ccccc1F)Cc1ccccc1F (mixture of isomers) [Compound N, (2RS, 3S)-3-{N-[Bis(2-fluorobenzyl)acetyl]-L-histidyl}amino-4-cyclohexyl-2-hydroxybutyric acid cyclopentyl ester] | – | – |
| 18 | 280 | O=C(N[C@@H](Cc1c[nH]cn1)C(=O)N[C@@H](CC1CCCCC1)C(O)C(=O)OC1CCCC1)C(Cc1ccccc1)Cc1ccccc1 (mixture of isomers) [Compound K, (2RS, 3S)-3-[N-(dibenzylacetyl)-L-histidyl]amino-4-cyclohexyl-2-hydroxybutyric acid cyclopentyl ester] | – | – |
